The source of these data is US6852708B2, “Use of hyaluronic acid and forms to prevent the narrowing of the vascular walls” (Jagotec AG, priority 1991, dated 2005).

Values joined by “and” are separate entries in the source; they are usually repeats but may differ in a detail not shown here. Equal entries are not always repeated.

Data set [1] has as its system macrophage cell line WEHI-3. The data set can be described thus: Chemotaxis of macrophage cell line WEHI-3 to endotoxin-activated mouse serum (complement). It counts as cell-based. The settings on record: peptide 2 μg/mL; FIG. 11. Here is the method: (§1) The HA-binding region of RHAMM consists of two 10 amino acid domains located close to the carboxy terminus of the protein^15. A peptide mimicking Domain I (amino acides^401-411)—[…]—and a scrambled peptide consisting of the same amino acids arranged in a random manner-———-were synthesized at the Manitoba Institute of Cell Biology. Both peptides were used at a final concentration of 2 μg/mL in locomotion assays.
(§2) The macrophage cell lines S1 and WEHI-3 were used to analyze the effect of antibodies and synthetic peptide on macrophage chemotaxis to endotoxin-activated mouse serum (AS). These cell lines were also maintained in DME with 10% FCS and 20 mM Hepes buffer, pH 7.2 at 37° C. and 5% CO2 in air.
(§3) Chemotaxis was stimulated using either bacterial endotoxin-activated mouse serum (AS), prepared according to Stevenson et al.^18 for macrophage cell lines, or 100 ng/mL interleukin-8 (IL-8) for meutrophils. Heat-inactivated serum (56° C. for 20 minutes) or medium served as negative controls respectively. […] The number of displaced cells was quantified by the addition of 3-(4.5-dimethylthiazol-2-yl)-2.5-[…] tetrazolium bromide (MTT) to a final concentration of 250 μg/mL that was incubated at 37° C. for 4 hours. […] The plate was analyzed within 2 hours on a microtiter plate ELISA reader with a filter of 540 nm. […]

Data set [2] has as its system smooth muscle cells isolated from bovine aorta. The data set can be described thus: Smooth muscle cell migration after wounding of monolayers (timelapse cinemicrography). The format is cell-based. Here is the method: as §1
Smooth muscles cells were isolated from bovine aorta as described previously for rate aorta^17 and were maintained in Dulbecco's Modified Eagles medium (DME) supplemented with 10% fetal calf serum (FCS) and 20 mM Hepes buffer, pH 7.2 at 37° C. and 5% CO2 in air. All experiments were performed using defined medium [DM, Dulbecco's Modified Eagles medium with 20 mM HEPES buffer, pH 7.2, 0.5 U/mL insulin (beef and pork zinc suspension, Novo Laboratories Ltd., Willowdale, Ontario) and 4 μg/mL transferrin (Sigma Chemical Co., St. Louis, Mo.)], and the culture medium was replaced 24 hours before filming. […]
Injured cell monlayers were monitored for motility using an 1 M 35 Zeiss inverted microscope to which a video camera (Hamamatsu CCD, Inc., Japan) was attached. […] This program allows quantification of nuclear displacement from a sequence of digitalized images. The motility of thirty cells in each experiment was followed for a period of 24 hours with mean velocities calculated every hour.

In another data set the test system is Human neutrophils. Description: Chemotaxis of neutrophils to IL-8. The format is cell-based. Particulars: 100 ng/mL IL-8; peptide 2 μg/mL; FIG. 10. On the procedure: as §1
Human neutrophils were obtained from peripheral blood samples of normal volunteers and mixed in ACD solution (0.085) M trisodium citrate, 0.065 M citric acid, 2% Dextrose) to prevent clotting. 5% Dextran was added and the separated plasma and white blood cells were removed. The cells were washed twice in PBS, pH 7.2 and a Ficoll gradient was used to separate the lymphocytes. The isolated neutrophils were then washed and resuspended in PBS. […]
Chemotaxis was stimulated using either bacterial endotoxin-activated mouse serum (AS), prepared according to Stevenson et al.^18 for macrophage cell lines, or 100 ng/mL interleukin-8 (IL-8) for meutrophils. […] The number of displaced cells was quantified by the addition of 3-(4.5-dimethylthiazol-2-yl)-2.5-[…] tetrazolium bromide (MTT) to a final concentration of 250 μg/mL that was incubated at 37° C. for 4 hours. […] The plate was analyzed within 2 hours on a microtiter plate ELISA reader with a filter of 540 nm. […]

A further data set deals with macrophage cell line S1. Description: Chemotaxis of macrophage cell line S1 to endotoxin-activated mouse serum (complement). It counts as cell-based. The settings on record: peptide 2 μg/mL; FIG. 11. On the procedure: as §1, §2, §3
Data set [3] deals with balloon catheter injured common carotid artery. Description: Balloon catheter injury of the common carotid artery in cholesterol-fed rabbits, hyaluronan i.v. bolus then daily s.c. It counts as in vivo, New Zealand White rabbit. Particulars: for reduction in mean intimal macrophage content: versus cholesterol-diet alone, p<0.02; for reduction of the absolute neo-intimal response to injury (absolute size of the neo-intima): versus cholesterol-fed group given saline, p<0.05, 15 mg/kg/day. From the text: Juvenile New Zealand White rabbits (3 to 6 months old), weighing approximately 2.5 kg were obtained from Rosemead Rabbit Co. Essex, UK) and housed in the Biological Services Unit of St. bartholomew's Hospital Medical College, London.
After one week on a commercial rabbit chow diet (Scientific Diet Services, Essex, UK) the animals were started on a 2% cholesterol diet (Scientific Diet Services, Essex, UK). Water was allowed ad libitum.
One week after starting the above diet, animals were anaesthetized with intramuscular xylazine [Rompun (Bayer, Suffolk, UK); 40 mg/kg] and ketamine [Vetalar (Parke-Davis, UK); 10 mg/kg]. The left carotid bifurcation was exposed through a paramedian incision, and the external carotid artery prepared for balloon injury. The animals were injected with a bolus of sterile sodium hyaluronate (15 mg/kg) referred to at page 15, line 31 to page 16 line 1 (Hyal Pharmaceutical Corporation, Ontario, Canada) or saline via a marginal ear vein. Endothelium was then removed from the entire left common carotid artery by the passage of an inflated 2F French Fogarty Embolectomy catheter as previously described (Ferns et al 1992). The catheter was then withdrawn, the external carotid tied off, and the skin and deep fascia closed with chromic catgut and discontinuous 3-O silk. The validity of the procedure for endothelial cell denudation was assessed by scanning electron microscopy of a number of carotids from animals killed immediately post-operatively. Animals received a further subcutaneous injection of hyaluronic acid (15 mg/kg) or saline post-operatively, and daily until sacrifice.
Blood for serum cholesterol was collected from each animal before the start of each experimental diet, peri-operatively and at the time of sacrifice. Samples were separated by centrifugation and stored at −20° C. prior to analysis.
Two weeks after carotid de-endothelialization, the animals were sedated with intramuscular xylazine and ketamine and given an intravenous injection of 2% Evans blue in isotonic phosphate-buffered saline. Five minutes later, an abdominal incision was made to access the abdominal aorta for insertion of a cannula connected to a perfusion apparatus, and both jugular veins exposed for perfusion run-off. The animals were then killed by an overdose of anaesthetic and perfused with buffered saline at a rate of 100 ml/minute/kg body weight. When the run-off was clear, the saline was replaced with 4% paraformaldehyde in isotonic PBS at the same flow rate. Perfusion was continued for 15 minutes. After fixation in situ, the denuded and contralateral carotids were dissected free and cleaned of adherent fat and fascia. The segments were immediately rinsed in PBS and placed in fresh 4% paraformaldehyde overnight for paraffin embedding. Some segments were placed into 2.5% glutaraldehyde for subsequent processing for electron microscopy.
Five micron sections were taken from the blue (de-endothelialised) segments of carotid artery, for haematoxylin and eosin (H&E) staining. Adjacent sections were cut for elastin staining using Verhoeff-Van Geisen (VVG) stain, and immunostaining using monoclonal antibodies directed against rabbit alveolar macrophages (RAM-11) and smooth muscle cell actin (HHF-35), as described by Tsukada et al. (1986).
Serum cholesterol levels were measured by the CHOD-POD enzymatic-colorimetric method using a Cholesterol C-system kit (Boehringer Corp., Lewes, UK) and a Vitalab 100 autoanalyzer with Precipath U and Precinorm U (Boehringer Corp., Lewes, UK) quality control material.
The intimal and medial thickness of each segment was measured using a Zeiss Axioskop microscope equipped with a X10 Achroplan objective, a digitizing pad and an IBM 55SX PC containing a VIDS V interface card and VIDS V software. Measurements were performed in duplicate on three mid-carotid VVG stained sections. […]

The next data set relates to injured carotid arteries. The data set can be described thus: Balloon angioplasty in rabbits perfused with hyaluronan, carotid artery histology. The settings on record: perfused with hyaluronan 5 mg/ml just prior to injury; for adherence / accumulation of white cells on the endothelium of the injured carotid artery: 2, 24, 48 hours after injury. It counts as in vivo, rabbit. Here is the method: 10 rabbits were anesthetized and balloon angioplasty was performed on them. The rabbits were perfused with hyaluronan (5 mg/ml) or buffer alone and allowed their recover. […] Sections were stained with hematoxylin or with anti RHAMM antibodies. 10 sections of each treatment were analyzed.

For data set [4], the system named is balloon angioplasty injured carotid artery. Description: Balloon angioplasty injury in cholesterol-fed rabbits, hyaluronan injections administered subcutaneously. The format is in vivo, rabbit. On the procedure: Tests were conducted with cholesterol-fed rabbits and the following was found. The tests were of the same nature except that the injections of the hyaluronan (sodium hyaluronate) were administered subcutaneously.

Where [5] appears, read: MEAN of HYAL + CHOL group, N=15, 2 weeks after injury.
The mark [6] stands for this setting: hyaluronan-treated group, 2 weeks after injury.
[7] abbreviates: individual animals of the HYAL + CHOL group, 2 weeks after injury.
[8] abbreviates: mean ± SEM, n=15, Hyal 15 mg/kg/d.
The mark [9] stands for this setting: HYAL + CHOL group, n=15, s.c. injections.

As for YKQKIKHVVKLK [peptide aa^401-411], the “chemotaxis of WEHI-3 to endotoxin-activated mouse serum” value in data set [1] is on record as “inhibited”. The “locomotion of smooth muscle cells responding to injury” value in data set [2] (peptides 100 ng/plate, FIG. 6) is “inhibits”. Also, the “rate of translocation of smooth muscle cells following wounding of monolayers” value in data set [2] (peptides 2 μg/mL, 5 hours after wounding, FIG. 12) is “significantly reduced”. Also, in the data set on Human neutrophils, the “chemotaxis of neutrophils to IL-8” value is recorded as “significantly inhibited”. The “chemotaxis of S1 to endotoxin-activated mouse serum” value in the data set with macrophage cell line S1 was “inhibited”.

sodium hyaluronate: the “intimal thickening in the cholesterol-fed rabbits” value in data set [3] (15 mg/kg i.v. immediately pre-operatively, then daily s.c. for fourteen days) is “significantly inhibited”. Besides, the “neo-intimal macrophage content in the cholesterol-fed rabbits” value in data set [3] (15 mg/kg/d, 2 weeks after injury) is listed as “reduced”. Further, the “mean medial thickness compared with the control animals” value in data set [3] (2 weeks after injury, p>0.05) is “did not differ significantly”. Besides, in data set [3] (MEAN of HYAL + CHOL group, N=15), the “Body Weight, Sacrifice” value was 2.64 kg. In data set [3] (setting [5]), the I/M is on record as 0.59, the INTIMA turned out to be 65.79 microns, the “Intimal Macrophage Content (%)” value amounted to 3.22% and the MEDIA was determined as 105.01 microns. Besides, the “Mean weight, Sacrifice” value in data set [3] (group mean ± SEM, n=15, at sacrifice, Hyal 15 mg/kg/d) was determined as 2.64 ± 0.09 kg. Besides, in data set [3] (setting [6]), the “intima: media ratio” value was 0.59±0.011 and the “mean intimal macrophage content” value was found to be 3.22±1.05%. In data set [3] (setting [7]), the I/M is 0.68 and 1.10 and 0.21 and 0.42 and 0.46 and 0.30 and 1.03 and 0.66 and 0.24 and 1.61 and 0.81 and 0.10 and 0.72 and 0.08 and 0.45; the INTIMA was 82.60 microns and 212.00 microns and 22.00 microns and 55.62 microns and 42.10 microns and 17.44 microns and 76.40 microns and 48.23 microns and 26.63 microns and 187.50 microns and 112.22 microns and 8.44 microns and 84.87 microns and 8.38 microns and 2.35 microns; the “Intimal Macrophage Content (%)” value is 6.90% and 13.20% and 3.10% and 5.50% and 0.17% and 1.10% and 0.40% (2×) and 0.00% (2×) and 1.70% and 7.80% and 0.50% and 4.70% and 2.90%; the MEDIA was 118.90 microns and 200.00 microns and 109.00 microns and 139.14 microns and 91.10 microns and 78.28 microns and 74.70 microns and 74.65 microns and 111.50 microns and 118.72 microns and 143.77 microns and 83.43 microns and 120.62 microns and 105.57 microns and 5.81 microns. Further, the “Body Weight, Sacrifice” value in data set [3] (individual animals of the HYAL + CHOL group, at sacrifice) was 2.60 kg (2×) and 2.89 kg and 2.91 kg and 3.40 kg and 2.88 kg and 2.81 kg (2×) and 2.25 kg and 2.74 kg and 2.35 kg and 2.15 kg and 2.40 kg and 2.38 kg and 2.42 kg. For the same substance, in data set [3] (individual animals of the HYAL + CHOL group, before treatment), the “Body Weight, Start” value was 2.25 kg. For the same substance, in data set [3] (setting [8]), the “Mean Intimal thickness 2 weeks after injury” value is reported as 0.068 ± 0.016 mm, the “Mean intima/media ratio 2 weeks after injury” value is listed as 0.59 ± 0.11 and the “Mean intimal macrophage content 2 weeks after injury (% of total cell number)” value is 3.22 ± 0.98%. For the same substance, the “gain in body weight over the three week experimental period” value in data set [3] (rabbit, in vivo) is “approximately 30%”. The “reduction in mean intimal macrophage content” value in data set [3] (2 weeks after injury, listed as Hyaluronan) is listed as 62%. Moreover, in data set [3] (2 weeks after injury, listed as hyaluronan), the “reduction in mean intimal macrophage content” value was “approximately 62%”. For the same substance, in data set [3] (versus cholesterol-fed control group, 2 weeks after injury, 15 mg/kg/d), the “reduction of the intima: media ratio” value turned out to be 35%. Besides, the “reduction of the absolute neo-intimal response to injury (absolute size of the neo-intima)” value in data set [3] (2 weeks after injury, 15 mg/kg/d, listed as Hyaluronan) was found to be 42%. Besides, in data set [3] (2 weeks after injury, 15 mg/kg/d, listed as hyaluronan), the “reduction of the absolute neo-intimal response to injury (absolute size of the neo-intima)” value is reported as “approximately 46%”. Moreover, the “endothelial cell layer of the injured carotid artery (histology)” value with injured carotid arteries is on record as “intact endothelial cell layer”. Further, in the data set with injured carotid arteries (listed as Hyaluronan), the “adherence / accumulation of white cells on the endothelium of the injured carotid artery” value is “abolished”. For the same substance, the “adherence / accumulation of white cells on the endothelium of the injured carotid artery” value with injured carotid arteries (listed as hyaluronan) is listed as “do not exhibit accumulations of white cells”. Further, in data set [4] (setting [9]), the “mean I:M ratio” value is 0.591 and the “mean absolute intimal thickness” value is given as 95.7 μm. Moreover, the “neo-intimal thickness following balloon angioplasty injury” value in data set [4] (cholesterol-fed rabbits, FIGS. 20 and 21) was “significantly inhibited”.
